# Measurements as given in patent EP4778531A1, “MUSCLE RELAXANT ANTAGONIST FOR REVERSAL FOR BENZYLISOQUINOLINE MUSCLE RELAXANT” (priority 2023, dated 2025).
# Test system: cisatracurium-induced guinea pig muscle relaxation model
# Assay: Arterial blood pressure and heart rate in the cisatracurium muscle relaxation model
# Assay type: in vivo, Hartley guinea pigs
# Description: Ninety (90) qualified Hartley guinea pigs, male, were used. Sixty (60) animals were randomly divided into 6 experimental groups based on body weight using a stratified random method: negative control group, positive control group, low-dose test group, medium-dose test group, high-dose test group, and combination group, with 10 animals per group (n=10). The remaining animals served as spares. The negative control group received 0.9% sodium chloride. The positive control group received 0.0625 mg/kg neostigmine methylsulfate (referred to as neostigmine). The low-dose test group received 10 mg/kg adamgammadex sodium. The medium-dose test group received 20 mg/kg adamgammadex sodium. The high-dose test group received 40 mg/kg adamgammadex sodium. The combination group received 10 mg/kg adamgammadex sodium and 0.03125 mg/kg neostigmine. The administration volume for all groups was 1 mL/kg.
# Adaptive feeding was conducted after the quarantine period. On the day of the experiment, guinea pigs were weighed, administered atropine (0.1 mg/kg) intramuscularly, and then anesthetized with an intraperitoneal injection of anesthetic (pentobarbital sodium 10 mg/kg, urethane 1000 mg/kg). After fixation, the animals were intubated and connected to a small animal ventilator. Both external jugular veins and the right carotid artery were cannulated. The left jugular vein was used for cisatracurium infusion, the right jugular vein for injection of different test substances, and the carotid artery was connected to a multi-channel physiological signal acquisition and processing system for continuous monitoring of arterial blood pressure and heart rate. Electrode patches were subcutaneously placed behind the left femur and tibia of the guinea pig, and two stimulating electrodes of the neuromuscular monitor were fixed to the two electrode patches. The left hind paw was fixed on a custom-made platform. A sensor was fixed to the skin surface over the gastrocnemius muscle of the left hind limb, and a skin temperature probe was fixed to a flat area of skin. Continuous single-twitch stimulation was applied at 1 Hz. After the twitch height stabilized, the mode was switched to train-of-four stimulation (TOF mode, stimulus current 5 mA, frequency 2 Hz, pulse width 0.2 ms, interval between trains 15 s) for at least 5 min. Calibration was then performed using Calibration Mode 2, followed by TOF mode stimulation. After obtaining a stable stimulation response for at least 2 min, cisatracurium solution was infused intravenously using a dual-channel micro-infusion pump, and the start time of infusion was recorded. […] At this point, cisatracurium infusion was stopped. After stopping the infusion, neuromuscular function was allowed to recover spontaneously. When neuromuscular function reached moderate recovery, the test drug formulation was administered intravenously. Neuromuscular function was allowed to recover completely, and the administration time was recorded (Figure 1). Using the time of spontaneous recovery to moderate neuromuscular function (TOF50) as zero point, the times for recovery from TOF50 to TOF75, TOF75 to TOF90, and TOF50 to TOF90 were calculated for each animal (Table 1-2). Arterial blood pressure (systolic, diastolic, mean arterial pressure) and heart rate were recorded before cisatracurium infusion, at the time cisatracurium infusion was stopped, at the time of moderate neuromuscular recovery, and at the time of complete neuromuscular function recovery (Tables 3-7). Data were expressed as Mean ± SD. Statistical T-tests were performed using SPSS software to evaluate differences in blood pressure, heart rate, and residual neuromuscular blockade recovery times. P < 0.05 was considered statistically significant.
# [1] = positive control group, 0.0625 mg/kg i.v.
# [2] = high-dose test group, 40 mg/kg i.v.
# [3] = low-dose test group, 10 mg/kg i.v.
# [4] = medium-dose test group, 20 mg/kg i.v.
compound,measurement,setting,value
"CN(C)C(=O)Oc1cccc([N+](C)(C)C)c1 [Neostigmine, neostigmine methylsulfate]",effect on heart rate (in words),0.0625 mg/kg,significant side effect of lowering heart rate
same,heart rate decrease,"0.0625 mg/kg neostigmine, positive control group, summary statement",approximately 30%
same,Heart rate Administration,[1],238+42 bmp
same,Heart rate Complete Recovery,[1],157±49 bmp
same,Heart rate Moderate Recovery,[1],181±54 bmp
same,Heart rate Muscle Relaxation End,[1],239+11 bmp
same,Heart rate Muscle Relaxation Start,[1],240+14 bmp
same,Mean Arterial Pressure mAP Administration,[1],68+12 mmHg
same,Mean Arterial Pressure mAP Complete Recovery,[1],67+15 mmHg
same,Mean Arterial Pressure mAP Moderate Recovery,[1],69+12 mmHg
same,Mean Arterial Pressure mAP Muscle Relaxation End,[1],63+8 mmHg
same,Mean Arterial Pressure mAP Muscle Relaxation Start,[1],62+11 mmHg
same,Mean Diastolic Pressure mDP Administration,[1],60+10 mmHg
same,Mean Diastolic Pressure mDP Complete Recovery,[1],58+15 mmHg
same,Mean Diastolic Pressure mDP Moderate Recovery,[1],61+12 mmHg
same,Mean Diastolic Pressure mDP Muscle Relaxation End,[1],57+6 mmHg
same,Mean Diastolic Pressure mDP Muscle Relaxation Start,[1],56±9 mmHg
same,Mean Pulse Pressure Administration,[1],17±8 mmHg
same,Mean Pulse Pressure Complete Recovery,[1],19+6 mmHg
same,Mean Pulse Pressure Moderate Recovery,[1],19±8 mmHg
same,Mean Pulse Pressure Muscle Relaxation End,[1],14±5 mmHg
same,Mean Pulse Pressure Muscle Relaxation Start,[1],15+4 mmHg
same,Mean Systolic Pressure mSP Administration,[1],76±15 mmHg
same,Mean Systolic Pressure mSP Complete Recovery,[1],78±13 mmHg
same,Mean Systolic Pressure mSP Moderate Recovery,[1],79±13 mmHg
same,Mean Systolic Pressure mSP Muscle Relaxation End,[1],71±10 mmHg
same,Mean Systolic Pressure mSP Muscle Relaxation Start,[1],71±12 mmHg
same,Degree of heart rate decrease at complete muscle relaxation recovery,"positive control group, 0.0625 mg/kg i.v., vs heart rate at start of muscle relaxation",35%
Adamgammadex sodium [Compound 1],effect on animal blood pressure or heart rate (in words),"10, 20, and 40 mg/kg",no effect on animal blood pressure or heart rate
same,Heart rate Administration,[2],258+18 bmp
same,Heart rate Complete Recovery,[2],258+16 bmp
same,Heart rate Moderate Recovery,[2],257+18 bmp
same,Heart rate Muscle Relaxation End,[2],249±21 bmp
same,Heart rate Muscle Relaxation Start,[2],243+27 bmp
same,Mean Arterial Pressure mAP Administration,[2],70±8 mmHg
same,Mean Arterial Pressure mAP Complete Recovery,[2],73+10 mmHg
same,Mean Arterial Pressure mAP Moderate Recovery,[2],72+8 mmHg
same,Mean Arterial Pressure mAP Muscle Relaxation End,[2],65+10 mmHg
same,Mean Arterial Pressure mAP Muscle Relaxation Start,[2],64+12 mmHg
same,Mean Diastolic Pressure mDP Administration,[2],60+7 mmHg
same,Mean Diastolic Pressure mDP Complete Recovery,[2],63±9 mmHg
same,Mean Diastolic Pressure mDP Moderate Recovery,[2],62±8 mmHg
same,Mean Diastolic Pressure mDP Muscle Relaxation End,[2],56+9 mmHg
same,Mean Diastolic Pressure mDP Muscle Relaxation Start,[2],56+12 mmHg
same,Mean Pulse Pressure Administration,[2],21±5 mmHg
same,Mean Pulse Pressure Complete Recovery,[2],21+5 mmHg
same,Mean Pulse Pressure Moderate Recovery,[2],21+4 mmHg
same,Mean Pulse Pressure Muscle Relaxation End,[2],19±5 mmHg
same,Mean Pulse Pressure Muscle Relaxation Start,[2],18+4 mmHg
same,Mean Systolic Pressure mSP Administration,[2],81±10 mmHg
same,Mean Systolic Pressure mSP Complete Recovery,[2],84±11 mmHg
same,Mean Systolic Pressure mSP Moderate Recovery,[2],83±9 mmHg
same,Mean Systolic Pressure mSP Muscle Relaxation End,[2],75±11 mmHg
same,Mean Systolic Pressure mSP Muscle Relaxation Start,[2],74±12 mmHg
same,Heart rate Administration,[3],269+20 bmp
same,Heart rate Complete Recovery,[3],270+18 bmp
same,Heart rate Moderate Recovery,[3],268+20 bmp
same,Heart rate Muscle Relaxation End,[3],261+20 bmp
same,Heart rate Muscle Relaxation Start,[3],259+30 bmp
same,Mean Arterial Pressure mAP Administration,[3],75+15 mmHg
same,Mean Arterial Pressure mAP Complete Recovery,[3],76+13 mmHg
same,Mean Arterial Pressure mAP Moderate Recovery,[3],74+10 mmHg
same,Mean Arterial Pressure mAP Muscle Relaxation End,[3],70+11 mmHg
same,Mean Arterial Pressure mAP Muscle Relaxation Start,[3],70±16 mmHg
same,Mean Diastolic Pressure mDP Administration,[3],67+13 mmHg
same,Mean Diastolic Pressure mDP Complete Recovery,[3],68+11 mmHg
same,Mean Diastolic Pressure mDP Moderate Recovery,[3],65+8 mmHg
same,Mean Diastolic Pressure mDP Muscle Relaxation End,[3],62+9 mmHg
same,Mean Diastolic Pressure mDP Muscle Relaxation Start,[3],61+14 mmHg
same,Mean Pulse Pressure Administration,[3],19+6 mmHg
same,Mean Pulse Pressure Complete Recovery,[3],18+6 mmHg
same,Mean Pulse Pressure Moderate Recovery,[3],18±5 mmHg
same,Mean Pulse Pressure Muscle Relaxation End,[3],17+4 mmHg
same,Mean Pulse Pressure Muscle Relaxation Start,[3],18±5 mmHg
same,Mean Systolic Pressure mSP Administration,[3],85±18 mmHg
same,Mean Systolic Pressure mSP Complete Recovery,[3],86±16 mmHg
same,Mean Systolic Pressure mSP Moderate Recovery,[3],83±12 mmHg
same,Mean Systolic Pressure mSP Muscle Relaxation End,[3],79±12 mmHg
same,Mean Systolic Pressure mSP Muscle Relaxation Start,[3],79±18 mmHg
same,Heart rate Administration,[4],259+38 bmp
same,Heart rate Complete Recovery,[4],263+36 bmp
same,Heart rate Moderate Recovery,[4],261+35 bmp
same,Heart rate Muscle Relaxation End,[4],247+42 bmp
same,Heart rate Muscle Relaxation Start,[4],242+43 bmp
same,Mean Arterial Pressure mAP Administration,[4],70+8 mmHg
same,Mean Arterial Pressure mAP Complete Recovery,[4],73+6 mmHg
same,Mean Arterial Pressure mAP Moderate Recovery,[4],74+7 mmHg
same,Mean Arterial Pressure mAP Muscle Relaxation End,[4],65+10 mmHg
same,Mean Arterial Pressure mAP Muscle Relaxation Start,[4],64±8 mmHg
same,Mean Diastolic Pressure mDP Administration,[4],61+8 mmHg
same,Mean Diastolic Pressure mDP Complete Recovery,[4],64+6 mmHg
same,Mean Diastolic Pressure mDP Moderate Recovery,[4],64+6 mmHg
same,Mean Diastolic Pressure mDP Muscle Relaxation End,[4],57+9 mmHg
same,Mean Diastolic Pressure mDP Muscle Relaxation Start,[4],56+8 mmHg
same,Mean Pulse Pressure Administration,[4],19±3 mmHg
same,Mean Pulse Pressure Complete Recovery,[4],20+4 mmHg
same,Mean Pulse Pressure Moderate Recovery,[4],20+3 mmHg
same,Mean Pulse Pressure Muscle Relaxation End,[4],18±3 mmHg
same,Mean Pulse Pressure Muscle Relaxation Start,[4],18±3 mmHg
same,Mean Systolic Pressure mSP Administration,[4],80±8 mmHg
same,Mean Systolic Pressure mSP Complete Recovery,[4],84±7 mmHg
same,Mean Systolic Pressure mSP Moderate Recovery,[4],84±7 mmHg
same,Mean Systolic Pressure mSP Muscle Relaxation End,[4],75±10 mmHg
same,Mean Systolic Pressure mSP Muscle Relaxation Start,[4],74±9 mmHg
